How the values were obtained:
[1] = biological target: Histamine H4 receptor (Homo sapiens, UniProt Q9H3N8); assay: Displacement of [3H]histamine from human histamine H4 receptor
[2] = biological target: T1, Histamine H3 receptor (Homo sapiens, UniProt Q9Y5N1); assay: Displacement of [3H]Nalpha-methylahistamine from human histamine H3 receptor
[3] = biological target: T1, Histamine H3 receptor; assay: Binding affinity to histamine H3 receptor

T1 sequence (Q9Y5N1 whole entry): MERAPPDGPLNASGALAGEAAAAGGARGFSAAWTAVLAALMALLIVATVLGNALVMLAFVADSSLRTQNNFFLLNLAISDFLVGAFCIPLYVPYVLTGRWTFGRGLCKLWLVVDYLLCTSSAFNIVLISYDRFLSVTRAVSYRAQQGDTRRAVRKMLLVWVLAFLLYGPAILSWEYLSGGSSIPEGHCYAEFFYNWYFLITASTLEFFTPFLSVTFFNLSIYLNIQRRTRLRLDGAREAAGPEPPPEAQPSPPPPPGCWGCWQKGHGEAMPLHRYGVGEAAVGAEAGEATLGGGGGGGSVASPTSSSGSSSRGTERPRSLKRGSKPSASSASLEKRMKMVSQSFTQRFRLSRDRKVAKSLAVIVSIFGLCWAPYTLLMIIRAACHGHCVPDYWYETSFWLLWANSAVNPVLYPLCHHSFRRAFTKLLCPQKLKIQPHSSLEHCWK

| Ki [1] | Ki [2] | SMILES | Ki [3] |
| --- | --- | --- | --- |
| 148 nM | 38.7 nM | Cc1nc[nH]c1[C@@H]1C[C@H]1CCNCc1ccc(Cl)cc1 | – |
| – | – | NCC[C@@H]1C[C@@H]1c1cnc[nH]1 | 1.3 nM |
| > 1000 nM | > 1000 nM | Cc1[nH]cnc1[C@@H]1C[C@H]1CNCc1ccc(Cl)cc1 | – |

Reference: ChEMBL document CHEMBL1159097, “Synthesis and structural and pharmacological properties of cyclopropane-based conformationally restricted analogs of 4-methylhistamine as histamine H3/H4 receptor ligands” (Bioorg Med Chem, 2010)
